Experimental data as given in PubChem BioAssay (NCI).
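Test compounds were applied to cells in 96-well plates for 48 hours at 5 doses. At the GI50, growth is halved. Definition used: TGI = concentration required for complete inhibition of growth.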 Where a SMILES comes first, the peptide text is derived from it.

Columns and labels:
Test in all cases: growth of human tumour cells (NCI), 48 h
[1] = tested on: HOP-62 NSCLC
[2] = tested on: MDA-N
[3] = tested on: NCI-H23 lung
[4] = tested on: HCT-15 colon
[5] = tested on: BT-549 breast
[6] = tested on: UACC-257 melanoma
[7] = tested on: U251 CNS
[8] = tested on: OVCAR-5 ovarian
[9] = tested on: K-562 leukemia
[10] = tested on: SF-268 CNS
[11] = tested on: DU-145 prostate
[12] = tested on: OVCAR-8 ovarian
[13] = tested on: NCI-H460 lung
[14] = tested on: MALME-3M melanoma
[15] = tested on: UO-31 renal
[16] = tested on: PC-3 prostate
[17] = tested on: RXF 393 renal
[18] = tested on: SK-MEL-5 melanoma
[19] = tested on: OVCAR-3 ovarian

Compound	TGI [1]	TGI [2]	TGI [3]	TGI [4]	TGI [5]	TGI [6]	TGI [7]	TGI [8]	TGI [9]	TGI [10]	TGI [11]	TGI [12]	TGI [13]	TGI [14]	TGI [15]	TGI [16]	TGI [17]	TGI [18]	GI50 [19]	TGI [19]
CC#Cc1cc2c(cc1O)CC[C@@H]1[C@@H]2CC[C@]2(C)[C@@H](O)CC[C@@H]12	16 µM	0.547 µM	10.6 µM	14.2 µM	24.5 µM	28.1 µM	7.81 µM	48.4 µM	> 100 µM	> 100 µM	46.9 µM	19.9 µM	20.2 µM	18.3 µM	39 µM	39 µM	13.8 µM	13.8 µM	0.337 µM	3.26 µM
NNc1ccccc1Cl	> 100 µM	> 100 µM	> 100 µM	> 100 µM	> 100 µM	> 100 µM	> 100 µM	> 100 µM	> 100 µM	> 100 µM	> 100 µM	> 100 µM	> 100 µM	> 100 µM	> 100 µM	> 100 µM	> 100 µM	> 100 µM	–	> 100 µM
COC(=O)[C@@H]1C2OC(C)(C)OC2CN1C(=O)OCc1ccccc1 (stereo partly specified)	> 100 µM	> 100 µM	> 100 µM	> 100 µM	> 100 µM	> 100 µM	> 100 µM	> 100 µM	> 100 µM	> 100 µM	> 100 µM	> 100 µM	> 100 µM	> 100 µM	> 100 µM	> 100 µM	> 100 µM	> 100 µM	–	> 100 µM
CC(C)(C)OC(=O)NC(Cc1ccc(OCc2ccccc2)cn1)C(=O)NCc1ccccc1 (stereo unspecified)	56.1 µM	43.8 µM	47.3 µM	72.8 µM	48.6 µM	34.5 µM	> 100 µM	> 100 µM	> 100 µM	75 µM	> 100 µM	82.1 µM	69.7 µM	65.7 µM	82.9 µM	53 µM	> 100 µM	26 µM	–	43.2 µM
CCCNC(C#N)c1ccc(OCCCCCCCCCCOc2ccc(C(C#N)NCCC)cc2)cc1 (stereo unspecified)	> 100 µM	> 100 µM	> 100 µM	> 100 µM	> 100 µM	> 100 µM	42.7 µM	> 100 µM	76.3 µM	> 100 µM	> 100 µM	> 100 µM	> 100 µM	> 100 µM	> 100 µM	> 100 µM	65.1 µM	> 100 µM	–	81.1 µM
COC(=O)[C@]12CCC(C)(C)C[C@H]1C1=CC[C@@H]3[C@@]4(C)CC[C@H](OC5OC(CO)C(O)C(O)C5OC5OC(CO)C(O)C(O)C5O)C(C)(C)[C@@H]4CC[C@@]3(C)[C@]1(C)CC2 (stereo partly specified)	25.3 µM	18.4 µM	19.6 µM	25 µM	35.8 µM	20.3 µM	26.3 µM	30.5 µM	25.4 µM	31.2 µM	24.5 µM	34 µM	30.2 µM	25.2 µM	10.9 µM	15.3 µM	19.7 µM	29.3 µM	–	22.4 µM
O=C(NCCNCCNCCNC(=O)c1cc(-c2ccccc2)nc2ccccc12)c1cc(-c2ccccc2)nc2ccccc12	5.96 µM	2.97 µM	13.1 µM	18.9 µM	21.9 µM	3.17 µM	3.3 µM	4.94 µM	4.12 µM	10.1 µM	11.8 µM	3.85 µM	3.4 µM	3.31 µM	18 µM	14.1 µM	4.34 µM	2.88 µM	–	8.11 µM
O=C(O)Cc1cccc2c1OC(c1ccccc1)C(C(=O)c1ccccc1)C2=O (stereo unspecified)	> 100 µM	> 100 µM	> 100 µM	> 100 µM	> 100 µM	> 100 µM	> 100 µM	> 100 µM	> 100 µM	> 100 µM	> 100 µM	> 100 µM	> 100 µM	> 100 µM	> 100 µM	> 100 µM	> 100 µM	> 100 µM	–	> 100 µM
COc1cc(Br)cc2nc(-c3cccs3)oc12	> 92.1 µM	> 100 µM	> 100 µM	> 100 µM	> 100 µM	> 100 µM	> 100 µM	> 100 µM	> 100 µM	> 100 µM	> 100 µM	> 100 µM	> 100 µM	> 100 µM	> 100 µM	> 100 µM	> 100 µM	> 100 µM	–	> 100 µM
CCN(CC)CCn1c2cc3c(cc2c(=O)c2cccnc21)OCO3	> 10 µM	> 10 µM	> 10 µM	> 10 µM	> 10 µM	> 10 µM	> 10 µM	> 10 µM	–	> 10 µM	> 10 µM	> 10 µM	7.79 µM	> 10 µM	–	> 10 µM	> 10 µM	> 10 µM	–	> 10 µM
COc1cc2nc(-c3ccccc3F)[nH]c(=O)c2cc1OC	> 100 µM	> 100 µM	> 100 µM	> 100 µM	> 100 µM	> 100 µM	–	> 100 µM	> 100 µM	> 100 µM	> 100 µM	> 100 µM	> 100 µM	> 100 µM	> 100 µM	> 100 µM	> 100 µM	> 100 µM	–	> 100 µM
CC1(c2nc3ccccc3[nH]2)CCC(C(N)=O)C(C)(C)O1 (stereo unspecified)	> 100 µM	> 100 µM	> 100 µM	> 100 µM	> 100 µM	> 100 µM	> 100 µM	> 100 µM	> 100 µM	> 100 µM	> 100 µM	> 100 µM	–	> 100 µM	> 100 µM	> 100 µM	> 100 µM	> 100 µM	–	> 100 µM
COc1ccc(OC)c(-c2nc3ccccc3c(=O)[nH]2)c1	> 100 µM	> 100 µM	> 100 µM	> 100 µM	> 100 µM	> 100 µM	> 100 µM	> 100 µM	> 100 µM	> 100 µM	> 100 µM	> 100 µM	> 100 µM	> 100 µM	> 100 µM	> 100 µM	> 100 µM	> 100 µM	–	> 100 µM
COc1ccc2c(c1)CC[C@@H]1[C@@H]2CC[C@]2(C)C(=O)/C(=C/c3ccncc3)C[C@@H]12	54.9 µM	> 100 µM	> 100 µM	> 100 µM	> 100 µM	> 100 µM	> 100 µM	> 100 µM	> 100 µM	> 100 µM	> 100 µM	> 100 µM	> 100 µM	77.3 µM	> 100 µM	> 100 µM	46.7 µM	41.6 µM	–	44.2 µM
COc1ccccc1N1C(=O)CS(=O)(=O)C1c1cccc(Oc2ccccc2)c1 (stereo unspecified)	49.2 µM	16.5 µM	37.3 µM	36.2 µM	31.8 µM	25.6 µM	29.7 µM	59 µM	19.1 µM	33.1 µM	71.2 µM	34.3 µM	29.4 µM	30 µM	35.1 µM	27.2 µM	38.8 µM	28.9 µM	–	41.2 µM
C[C@H]1CCCCC[C@@H]2CC(=O)CC2C(=O)CCC(=O)O1 (stereo partly specified)	> 100 µM	> 100 µM	> 100 µM	> 100 µM	> 100 µM	> 100 µM	> 100 µM	> 100 µM	> 100 µM	> 100 µM	> 100 µM	> 100 µM	> 100 µM	> 100 µM	–	> 100 µM	> 100 µM	> 100 µM	–	> 100 µM
CC[C@H](C)C1=C(O)[N@+]2([O-])Oc3ccc(-c4c(O)c(O)c(-c5ccc(OC(C)=O)cc5)c(OC(C)=O)c4OC(C)=O)cc3O[C@]2([C@@H](C)CC)C(=O)N1O	> 50 µM	> 50 µM	> 50 µM	> 50 µM	> 50 µM	> 50 µM	> 50 µM	> 50 µM	31.5 µM	> 50 µM	> 50 µM	> 50 µM	> 50 µM	> 50 µM	> 50 µM	> 50 µM	> 50 µM	> 50 µM	–	> 50 µM
COc1ccc2c(c1)CCCN1Cc3cc(OC)c(OC)cc3CC21 (stereo unspecified)	> 100 µM	> 100 µM	> 100 µM	> 100 µM	> 100 µM	> 100 µM	> 100 µM	> 100 µM	> 100 µM	> 100 µM	> 100 µM	> 100 µM	> 100 µM	> 100 µM	> 100 µM	> 100 µM	> 100 µM	> 100 µM	–	> 100 µM
Cn1c(=O)c2c(nc(N)n2C2OC(CO)C(O)C2O)n(C)c1=O (stereo unspecified)	> 100 µM	> 100 µM	> 100 µM	> 100 µM	> 100 µM	> 100 µM	> 100 µM	> 100 µM	> 100 µM	> 100 µM	> 100 µM	> 100 µM	> 100 µM	> 100 µM	> 100 µM	> 100 µM	> 100 µM	> 100 µM	–	> 100 µM
Nc1nc(Cl)cc(NCC2(CO)CCC(O)C2)n1 (stereo unspecified)	> 100 µM	> 100 µM	> 100 µM	> 100 µM	> 100 µM	> 100 µM	> 100 µM	> 100 µM	> 100 µM	> 100 µM	> 100 µM	> 100 µM	> 100 µM	> 100 µM	> 100 µM	> 100 µM	> 100 µM	> 100 µM	–	> 100 µM
S=C(N/N=C(/c1ccccc1)c1ccccn1)Nc1ccc(Cl)cc1	16.6 µM	9.57 µM	22.6 µM	11.2 µM	9.94 µM	2.43 µM	12.4 µM	6.2 µM	0.581 µM	15.5 µM	11.6 µM	3.19 µM	5.53 µM	10.6 µM	9.37 µM	10.3 µM	7.87 µM	8.1 µM	–	11.6 µM
CC(=O)NC(CS)C(=O)NC(CO)C(=O)NC(CO)C(=O)NC(Cc1c[nH]c2ccccc12)C(=O)N1CCCC1C(=O)NC(CO)C(=O)NC(Cc1c[nH]c2ccccc12)C(=O)NC(Cc1c[nH]cn1)C(=O)NC(CO)C(=O)NC(Cc1c[nH]c2ccccc12)C(=O)NCC(=O)NCC(=O)NC(CC(=O)O)C(=O)NC(CCC(N)=O)C(=O)NC(CCCCN)C(=O)NC(Cc1ccccc1)C(=O)NC(CCCNC(=N)N)C(=O)NC(CCCCN)C(N)=O (stereo unspecified) (Ac-CSSWPSWHSWGGDQKFRK-NH2; configuration not given here)	> 25 µM	> 25 µM	> 25 µM	> 25 µM	> 25 µM	> 25 µM	> 25 µM	> 25 µM	> 25 µM	> 25 µM	> 25 µM	> 25 µM	> 25 µM	> 25 µM	> 25 µM	> 25 µM	> 25 µM	> 25 µM	–	> 25 µM
CN(C)/C=C(\C(=O)c1ccccc1)n1nc(-c2ccccc2)cc1-c1ccccc1	> 10 µM	> 10 µM	> 10 µM	> 10 µM	> 10 µM	> 10 µM	> 10 µM	> 10 µM	–	> 10 µM	> 10 µM	> 10 µM	> 10 µM	> 10 µM	–	> 10 µM	> 10 µM	> 10 µM	–	> 10 µM
